The values below come from patent US10053461B2 (Hoffmann-La Roche Inc., priority 2015, dated 2018).

The structures appear in SMILES notation.

One assay concerns HBV DNA. Briefly: HBV DNA assay (real-time qPCR of extracellular HBV DNA, HepG2.2.15 cells). The class given is cell-based. Particulars: Hepatitis B virus, 144 h; Anti HBV DNA production activity in HepG2.2.15 cells, six days. On the procedure: The assay employs real-time qPCR (TaqMan) to directly measure extracellular HBV DNA copy number. HepG2.2.15 cells were plated in 96-well microtiter plates. Only the interior wells were utilized to reduce “edge effects” observed during cell culture, the exterior wells were filled with complete medium to help minimize sample evaporation. On the following day, the HepG2.2.15 cells were washed and the medium was replaced with complete medium containing various concentrations of a test compound in triplicate. 3TC was used as the positive control, while media alone was added to cells as a negative control (virus control, VC). Three days later, the culture medium was replaced with fresh medium containing the appropriately diluted drug. Six days following the initial administration of the test compound, the cell culture supernatant was collected, treated with pronase and then used in a real-time qPCR/TaqMan assay to determine HBV DNA copy numbers. Antiviral activity was calculated from the reduction in HBV DNA levels (IC50).
In turn, `COc1cc2c(cc1OCc1ccccc1)[C@H]1CCC(C)(C)[C@H]1n1cc(C(=O)O)c(=O)cc1-2` (relative stereo) [Example 3, Cis-11-(benzyloxy)-10-methoxy-3,3-dimethyl-7-oxo-1,2,3,3a,7,12b-hexahydrocyclopenta[c]pyrido[2,1-a]isoquinoline-6-carboxylic acid] returned an IC50 of 0.04 µM.

Take `COCCCOc1cc2c(cc1Cl)-c1cc(=O)c(C(=O)O)cn1[C@@H]1CCCCC[C@H]21` (relative stereo) [Example 28, cis-13-chloro-12-(3-methoxypropoxy)-2-oxo-2,5a,6,7,8,9,10,10a-octahydrocyclohepta[c]pyrido[2,1-a]isoquinoline-3-carboxylic acid]: the half-inhibitory concentration (IC50) was less than 0.032 µM.

In the next assay the test system is HBsAg.
Experiment: not given
The conditions noted are these: HBsAg secretion reduced by 50% vs no drug control, HepG2.2.15 cells.
Consider `COc1cc2c(cc1OCc1ccccc1)[C@H]1CCC(C)(C)[C@H]1n1cc(C(=O)O)c(=O)cc1-2` [Example 4, (3aS,12bR)-11-(benzyloxy)-10-methoxy-3,3-dimethyl-7-oxo-1,2,3,3a,7,12b-hexahydrocyclopenta[c]pyrido[2,1-a]isoquinoline-6-carboxylic acid], for which the IC50 stood at 0.003 µM.

For the next assay, the system named is HBsAg. Put plainly: microbe, parasite or virus in culture. Particulars: Hepatitis B virus, HepG2.2.15.
Description: HepG2.2.15 cells (Acs et al. Proc Natl Acad Sci USA, 84, (1987), 4641-4), a constitutively HBV-expressing cell line were cultured in DMEM+Glutamax-I medium (Invitrogen, Carlsbad, Calif., USA), supplemented with 10% fetal bovine serum (Invitrogen) and G418 (Invitrogen) at a final concentration of 200 mg/L and maintained in 5% CO2 at 37° C.
HepG2.2.15 cells were seeded in duplicate into white, 96-well plates at 1.5×10^4 cells/well. The cells were treated with a three-fold serial dilution series of the compounds in DMSO. The final DMSO concentration in all wells was 1% and DMSO was used as no drug control.
The HBsAg chemiluminescence immunoassay (CLIA) kit (Autobio Diagnostics Co., Zhengzhou, China, Catalog number: CL0310-2) was used to measure the levels of secreted HBV antigens semi-quantitatively. For the detection 50 μL/well culture supernatant was used and HBsAg was quantified using HBsAg chemiluminescence immunoassay (CLIA) kit (Autobio Diagnostics Co., Zhengzhou, China, Catalog number: CL0310-2), 50 μL of the supernatant was transferred to the CLIA assay plate and 50 μL of enzyme conjugate reagent was added into each well. The plates were sealed and gently agitated for 1 hour at room temperature. The supernatant-enzyme-mixture was discarded and wells were washed 6 times with 300 μL of PBS. The residual liquid was removed by plating the CLIA plate right side down on absorbent tissue paper. 25 μL of substrates A and B were added to each well. Luminance was measured using a luminometer (Mithras LB 940 Multimode Microplate Reader) after 10 minutes incubation. Dose-response curves were generated and the IC50 value was extrapolated by using the E-WorkBook Suite (ID Business Solutions Ltd., Guildford, UK). The IC50 was defined as the compound concentration (or conditioned media log dilution) at which HBsAg secretion was reduced by 50% compared to the no drug control.
The compounds of the present invention were tested for their activity to inhibit HBsAg as described herein.
For `COc1cc2c(cc1OCc1ccccc1)[C@H]1CCC(C)(C)[C@H]1n1cc(C(=O)O)c(=O)cc1-2` (relative stereo) [Example 3, Cis-11-(benzyloxy)-10-methoxy-3,3-dimethyl-7-oxo-1,2,3,3a,7,12b-hexahydrocyclopenta[c]pyrido[2,1-a]isoquinoline-6-carboxylic acid], inhibition was half-maximal at 0.003 µM (IC50).

Consider `COCCCOc1cc2c(cc1Cl)-c1cc(=O)c(C(=O)O)cn1[C@@H]1CCCCC[C@@H]21` (relative stereo) [Example 27, Trans-13-chloro-12-(3-methoxypropoxy)-2-oxo-2,5a,6,7,8,9,10,10a-octahydrocyclohepta[c]pyrido[2,1-a]isoquinoline-3-carboxylic acid], for which the IC50 came out at 0.02 µM.

For the compound `COCCCOc1cc2c(cc1Cl)-c1cc(=O)c(C(=O)O)cn1[C@@H]1CCCCC[C@H]21` (relative stereo) [Example 28, cis-13-chloro-12-(3-methoxypropoxy)-2-oxo-2,5a,6,7,8,9,10,10a-octahydrocyclohepta[c]pyrido[2,1-a]isoquinoline-3-carboxylic acid], the IC50 worked out at 0.003 µM.

Compound `COCCCOc1cc2c(cc1OC)-c1cc(=O)c(C(=O)O)cn1[C@H]1CCN(C(=O)OCc3ccccc3)C[C@H]21` (relative stereo) [Example 29, Trans-2-((benzyloxy)carbonyl)-11-methoxy-12-(3-methoxypropoxy)-8-oxo-2,3,4,4a,8,13b-hexahydro-1H-benzo[c]pyrido[1,2-a][1,6]naphthyridine-7-carboxylic acid] gave an IC50 of 0.152 µM.

Turning to `COCCCOc1cc2c(cc1OC)-c1cc(=O)c(C(=O)O)cn1[C@H]1CCN(C(=O)OCc3ccccc3)C[C@@H]21` (relative stereo) [Example 30, cis-2-((benzyloxy)carbonyl)-11-methoxy-12-(3-methoxypropoxy)-8-oxo-2,3,4,4a,8,13b-hexahydro-1H-benzo[c]pyrido[1,2-a][1,6]naphthyridine-7-carboxylic acid], the IC50 came out at 0.564 µM.

With `COc1cc2c(cc1OCc1ccccc1)[C@@H]1CCCC[C@@H]1n1cc(C(=O)O)c(=O)cc1-2` (relative stereo) [Example 32, cis-12-benzyloxy-11-methoxy-8-oxo-1,2,3,4,4a,13b-hexahydropyrido[1,2-f]phenanthridine-7-carboxylic acid], the midpoint of inhibition, the IC50, lay at 0.044 µM.

Compound `COCCCOc1cc2c(cc1OC)-c1cc(=O)c(C(=O)O)cn1[C@@H]1CCOC[C@@H]21` (relative stereo) [Example 33, Trans-11-methoxy-12-(3-methoxypropoxy)-8-oxo-1,3,4,4a,8,13b-hexahydropyrano[4,3-c]pyrido[2,1-a]isoquinoline-7-carboxylic acid] came in with an IC50 of 0.265 µM.

Take `COCCCOc1cc2c(cc1OC)-c1cc(=O)c(C(=O)O)cn1[C@@H]1CCOC[C@H]21` (relative stereo) [Example 34, cis-11-methoxy-12-(3-methoxypropoxy)-8-oxo-1,3,4,4a,8,13b-hexahydropyrano[4,3-c]pyrido[2,1-a]isoquinoline-7-carboxylic acid]: the IC50 was 0.186 µM.

On to `COCCCOc1cc2c(cc1OC)-c1cc(=O)c(C(=O)O)cn1[C@@H]1CCS(=O)(=O)C[C@@H]21` (relative stereo) [Example 37, Trans-11-methoxy-12-(3-methoxypropoxy)-8-oxo-1,3,4,4a,8,13b-hexahydropyrido[2,1-a]thiopyrano[4,3-c]isoquinoline-7-carboxylic acid 2,2-dioxide], for which the IC50 was 2.2 µM.

The compound `COc1cc2c(cc1C)[C@H]1CCC(C)(C)[C@H]1n1cc(C(=O)O)c(=O)cc1-2` (relative stereo) [Example 38, Cis-10-methoxy-3,3,11-trimethyl-7-oxo-1,2,3,3a,7,12b-hexahydrocyclopenta[c]pyrido[2,1-a]isoquinoline-6-carboxylic acid] yielded an IC50 of 0.036 µM. Compared with the last compound, the IC50 is about 61-fold lower.

Take `CCCc1cc2c(cc1OC)-c1cc(=O)c(C(=O)O)cn1[C@H]1[C@@H]2CCC1(C)C` (relative stereo) [Example 40, Cis-10-methoxy-3,3-dimethyl-7-oxo-11-propyl-1,2,3,3a,7,12b-hexahydrocyclopenta[c]pyrido[2,1-a]isoquinoline-6-carboxylic acid]: the IC50 was determined as 0.019 µM.

For `COc1cc2c(cc1N1CCCC1)[C@H]1CCC(C)(C)[C@H]1n1cc(C(=O)O)c(=O)cc1-2` (relative stereo) [Example 41, Cis-10-methoxy-3,3-dimethyl-7-oxo-11-(pyrrolidin-1-yl)-1,2,3,3a,7,12b-hexahydrocyclopenta[c]pyrido[2,1-a]isoquinoline-6-carboxylic acid], the IC50 was less than 0.0016 µM.

Compound `COc1cc2c(cc1OCc1ccccc1)[C@@H]1CCC(C)(C)[C@@H]1n1cc(C(=O)O)c(=O)cc1-2` [Example 5, (3aR,12bS)-11-(benzyloxy)-10-methoxy-3,3-dimethyl-7-oxo-1,2,3,3a,7,12b-hexahydrocyclopenta[c]pyrido[2,1-a]isoquinoline-6-carboxylic acid] displayed an IC50 of 0.308 µM.

In the case of `CCc1cc2c(cc1OC)-c1cc(=O)c(C(=O)O)cn1[C@H]1[C@@H]2CCC1(C)C` [Example 39], the IC50 is 0.02 µM. This IC50 lies about 15-fold lower than the previous one.
